From patent US11591355B2 (Peloton Therapeutics, Inc., priority 2017, dated 2023)

Assays:
Human CD73 = target: T1, Human CD73 (Homo sapiens, UniProt P21589); assay: CD73 Enzyme Assay; type: biochemical; conditions: 0.25 nM hCD73, 25 μM AMP, kinetic read at 360 nm; read-out: CD73 Enzyme Assay IC50
T1 construct: purchased R&D Systems; host or cells: CHO cells
T1 sequence (P21589 27-549): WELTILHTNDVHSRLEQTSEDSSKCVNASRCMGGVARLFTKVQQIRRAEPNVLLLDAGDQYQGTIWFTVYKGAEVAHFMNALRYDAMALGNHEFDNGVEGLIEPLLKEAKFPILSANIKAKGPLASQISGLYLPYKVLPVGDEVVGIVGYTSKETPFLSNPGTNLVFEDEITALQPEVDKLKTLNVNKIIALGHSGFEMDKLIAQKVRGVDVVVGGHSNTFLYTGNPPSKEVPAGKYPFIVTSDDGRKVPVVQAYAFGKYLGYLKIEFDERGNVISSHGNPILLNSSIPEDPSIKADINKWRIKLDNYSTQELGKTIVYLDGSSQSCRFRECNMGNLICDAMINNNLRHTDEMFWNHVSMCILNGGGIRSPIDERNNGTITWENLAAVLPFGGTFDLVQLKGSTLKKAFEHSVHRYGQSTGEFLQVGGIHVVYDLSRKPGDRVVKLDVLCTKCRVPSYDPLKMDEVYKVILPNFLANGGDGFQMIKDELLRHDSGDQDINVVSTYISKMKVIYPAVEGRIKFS

[1] = target: T2, CD73 on U138 human neuroglioma cells (Homo sapiens, UniProt P21589); assay: CD73 Cell-Based Assay; conditions: U138 cells, AMP substrate, 2 hours at 37° C., inorganic phosphate by malachite green
T2 construct: U138 cells were obtained from ATCC and cultured in DMEM with 10% FBS; host or cells: U138 human neuroglioma cells
T2 sequence (P21589 27-549): T1 sequence (P21589 27-549)
How it was run: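 Whole U138 cells washed free of phosphate were incubated with 200 μM AMP (mixture concentration before equal-volume addition) plus compound in HEPES-buffered saline, pH 7.4, for 2 h at 37 °C, 5% CO2. Adenosine-forming activity read as inorganic phosphate released into supernatant by malachite green.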

IC50 (Human CD73) [nM]	IC50 [1] [nM]	SMILES
10 to 100	< 10	C[C@@H](Nc1nc(Cl)nc2c1cnn2[C@@H]1O[C@H](COCP(=O)(O)O)[C@@H](O)[C@H]1O)c1ccc(F)cc1 [Compound 269, [(2R,3S,4R,5R)-5-[6-chloro-4-[[(1R)-1-(4-fluorophenyl)ethyl]-amino]pyrazolo[3,4-d]-pyrimidin-1-yl]-3,4-dihydroxy-tetrahydro-furan-2-yl]methoxy-methylphosphonic acid]
< 10	< 10	O=P(O)(O)COC[C@H]1O[C@@H](n2ncc3c(NC4CCC4)nc(Cl)nc32)[C@H](O)[C@@H]1O [Compound 270, [(2R,3S,4R,5R)-5-[6-chloro-4-(cyclobutyl-amino)pyrazolo[3,4-d]-pyrimidin-1-yl]-3,4-dihydroxy-tetrahydro-furan-2-yl]methoxy-methylphosphonic acid]
< 10	< 10	O=P(O)(O)COC[C@H]1O[C@@H](n2ncc3c(NC4CC(F)(F)C4)nc(Cl)nc32)[C@H](O)[C@@H]1O [Compound 271, [(2R,3S,4R,5R)-5-[6-chloro-4-[(3,3-difluoro-cyclobutyl)amino]-pyrazolo[3,4-d]-pyrimidin-1-yl]-3,4-dihydroxy-tetrahydro-furan-2-yl]methoxy-methylphosphonic acid]
10 to 100	< 10	CC(C)(O)C#Cc1nc(NC2CCCC2)c2ccn([C@@H]3O[C@H](COCP(=O)(O)O)[C@@H](O)[C@H]3O)c2n1 [Compound 272, [(2R,3S,4R,5R)-5-[4-(cyclopentylamino)-2-(3-hydroxy-3-methyl-but-1-ynyl)pyrrolo[2,3-d]pyrimidin-7-yl]-3,4-dihydroxy-tetrahydro-furan-2-yl]methoxy-methylphosphonic acid]
< 10	< 10	O=P(O)(O)COC[C@H]1O[C@@H](n2ncc3c(N4CC5CCCC5C4)nc(Cl)nc32)[C@H](O)[C@@H]1O (stereo partly drawn) [Compound 274, [(2R,3S,4R,5R)-5-[4-(3,3a,4,5,6,6a-hexa-hydro-1H-cyclopenta-[c]pyrrol-2-yl)-6-chloro-pyrazolo[3,4-d]-pyrimidin-1-yl]-3,4-dihydroxy-tetrahydro-furan-2-yl]methoxy-methylphosphonic acid]
< 10	< 10	O=P(O)(O)COC[C@H]1O[C@@H](n2ncc3c(N4CCC(F)(F)C4)nc(Cl)nc32)[C@H](O)[C@@H]1O [Compound 275, [(2R,3S,4R,5R)-5-[6-chloro-4-(3,3-difluoro-pyrrolidin-1-yl)-pyrazolo[3,4-d]-pyrimidin-1-yl]-3,4-dihydroxy-tetrahydro-furan-2-yl]methoxy-methylphosphonic acid]
< 10	< 10	O=P(O)(O)COC[C@H]1O[C@@H](n2ccc3c(NC4CCCC4)nc(C#CC4(O)CC4)nc32)[C@H](O)[C@@H]1O [Compound 276, ((((2R,3S,4R,5R)-5-(4-(cyclopentylamino)-2-((1-hydroxycyclopropyl)ethynyl)-7H-pyrrolo[2,3-d]pyrimidin-7-yl)-3,4-dihydroxytetrahydrofuran-2-yl)methoxy)methyl)phosphonic acid]
< 10	< 10	O=P(O)(O)COC[C@H]1O[C@@H](n2ncc3c(NC4CC5CC5C4)nc(Cl)nc32)[C@H](O)[C@@H]1O (stereo partly drawn) [Compound 279, [(2R,3S,4R,5R)-5-[4-(3-bicyclo[3.1.0]hexa-nylamino)-6-chloro-pyrazolo[3,4-d]-pyrimidin-1-yl]-3,4-dihydroxy-tetrahydro-furan-2-yl]methoxy-methylphosphonic acid]
< 10	< 10	O=P(O)(O)COC[C@H]1O[C@@H](n2ncc3c(N4CC5CC5C4)nc(Cl)nc32)[C@H](O)[C@@H]1O (stereo partly drawn) [Compound 280, [(2R,3S,4R,5R)-5-[4-(3-azabicyclo[3.1.0]-hexan-3-yl)-6-chloro-pyrazolo[3,4-d]-pyrimidin-1-yl]-3,4-dihydroxy-tetrahydro-furan-2-yl]methoxy-methylphosphonic acid]
10 to 100	100 to 1000	O=P(O)(O)COC[C@H]1O[C@@H](n2ccc3c(N4CCC[C@@H]4CO)nc(Cl)nc32)[C@H](O)[C@@H]1O [Compound 283, [(2R,3S,4R,5R)-5-[2-chloro-4-[(2R)-2-(hydroxymethyl)-pyrrolidin-1-yl]-pyrrolo[2,3-d]-pyrimidin-7-yl]-3,4-dihydroxy-tetrahydro-furan-2-yl]methoxy-methylphosphonic acid]
10 to 100	10 to 100	C[C@H]1CCCN1c1nc(Cl)nc2c1ccn2[C@@H]1O[C@H](COCP(=O)(O)O)[C@@H](O)[C@H]1O [Compound 284, [(2R,3S,4R,5R)-5-[2-chloro-4-[(2S)-2-methylpyrrolidin-1-yl]pyrrolo[2,3-d]-pyrimidin-7-yl]-3,4-dihydroxy-tetrahydro-furan-2-yl]methoxy-methylphosphonic acid]
< 10	< 10	O=P(O)(O)COC[C@H]1O[C@@H](c2c[nH]c3c(N4CC5CCCC5C4)nc(Cl)nc23)[C@H](O)[C@@H]1O (stereo partly drawn) [Compound 285, ((((2R,3S,4R,5S)-5-(2-chloro-4-(hexahydrocyclopenta[c]pyrrol-2 (1H)-yl)-5H-pyrrolo[3,2-d]pyrimidin-7-yl)-3,4-dihydroxytetrahydrofuran-2-yl)methoxy)methyl)phosphonic acid]
< 10	< 10	O=P(O)(O)CS(=O)(=O)C[C@H]1O[C@@H](n2ncc3c(NC4CCCC4)nc(Cl)nc32)[C@H](O)[C@@H]1O [Compound 287, [(2S,3S,4R,5R)-5-[6-chloro-4-(cyclopentyl-amino)pyrazolo[3,4-d]-pyrimidin-1-yl]-3,4-dihydroxy-tetrahydro-furan-2-yl]methyl-sulfonylmethylphos-phonic acid]
10 to 100	10 to 100	N#Cc1nc(N2CC3CC3C2)c2cnn([C@@H]3O[C@H](CS(=O)(=O)CP(=O)(O)O)[C@@H](O)[C@H]3O)c2n1 (stereo partly drawn) [Compound 288, [(2S,3S,4R,5R)-5-[4-(3-azabicyclo[3.1.0]-hexan-3-yl)-6-cyano-pyrazolo[3,4-d]-pyrimidin-1-yl]-3,4-dihydroxy-tetrahydro-furan-2-yl]methyl-sulfonylmethylphos-phonic acid]
< 10	< 10	O=P(O)(O)CS(=O)(=O)C[C@H]1O[C@@H](n2ccc3c(NC4CCCC4)nc(C(F)F)nc32)[C@H](O)[C@@H]1O [Compound 289, [(2S,3S,4R,5R)-5-[4-(cyclopentylamino)-2-(difluoromethyl)-pyrrolo[2,3-d]-pyrimidin-7-yl]-3,4-dihydroxy-tetrahydro-furan-2-yl]methyl-sulfonylmethylphos-phonic acid]
< 10	< 10	C[C@@H](Nc1nc(C#N)nc2c1cnn2[C@@H]1O[C@H](CS(=O)(=O)CP(=O)(O)O)[C@@H](O)[C@H]1O)c1ccc(F)cc1 [Compound 291, [(2S,3S,4R,5R)-5-[6-cyano-4-[[(1R)-1-(4-fluorophenyl)ethyl]-amino]pyrazolo[3,4-d]-pyrimidin-1-yl]-3,4-dihydroxy-tetrahydro-furan-2-yl]methyl-sulfonylmethylphos-phonic acid]
< 10	< 10	N#Cc1nc(NC2CC(F)(F)C2)c2cnn([C@@H]3O[C@H](CS(=O)(=O)CP(=O)(O)O)[C@@H](O)[C@H]3O)c2n1 [Compound 292, [(2S,3S,4R,5R)-5-[6-cyano-4-[(3,3-difluoro-difluorocyclobutyl)-amino]pyrazolo[3,4-d]-pyrimidin-1-yl]-3,4-dihydroxy-tetrahydro-furan-2-yl]methyl-sulfonylmethylphos-phonic acid]
10 to 100	10 to 100	N#Cc1nc(N2CCC(F)(F)C2)c2cnn([C@@H]3O[C@H](CS(=O)(=O)CP(=O)(O)O)[C@@H](O)[C@H]3O)c2n1 [Compound 293, [(2S,3S,4R,5R)-5-[6-cyano-4-(3,3-difluoro-pyrrolidin-1-yl)-pyrazolo[3,4-d]-pyrimidin-1-yl]-3,4-dihydroxy-tetrahydro-furan-2-yl]methyl-sulfonylmethylphos-phonic acid]
10 to 100	< 10	O=P(O)(O)COC[C@H]1O[C@H](c2c[nH]c3c(N4CC5CCCC5C4)nc(Cl)nc23)[C@H](O)[C@@H]1O (stereo partly drawn) [Compound 294, [(2R,3S,4R,5R)-5-[4-(3,3a,4,5,6,6a-hexa-hydro-1H-cyclopenta-[c]pyrrol-2-yl)-2-chloro-5H-pyrrolo[3,2-d]pyrimidin-7-yl]-3,4-dihydroxy-tetrahydro-furan-2-yl]methoxy-methylphosphonic acid]
< 10	< 10	O=P(O)(O)COC[C@H]1O[C@@H](c2csc3c(N4CC5CCCC5C4)nc(Cl)nc23)[C@H](O)[C@@H]1O (stereo partly drawn) [Compound 295, [(2R,3S,4R,5S)-5-[4-(3,3a,4,5,6,6a-hexa-hydro-1H-cyclopenta-[c]pyrrol-2-yl)-2-chloro-thieno[3,2-d]-pyrimidin-7-yl]-3,4-dihydroxy-tetrahydro-furan-2-yl]methoxy-methylphosphonic acid]
